# Entries after “also recorded” stand apart in the source; their conditions may differ.
# System: human leukemia and lymphoma cell lines that did not have mutant FLT3 receptors
# Experiment: Cytotoxicity against leukemia and lymphoma cell lines without mutant FLT3 receptors
# Type: cell-based
# Settings: at the concentrations required to inhibit the proliferation of FLT3-dependent cell-lines
row,Molecule,cytotoxicity
1,"CO[C@@H]1[C@H](N(C)C(=O)c2ccccc2)C[C@H]2O[C@]1(C)n1c3ccccc3c3c4c(c5c6ccccc6n2c5c31)C(=O)NC4 [MIDOSTAURIN, N-[(9S,10R,11R,13R)-2,3,10,11,12,13-hexahydro-10-methoxy-9-methyl-1-oxo-9,13-epoxy-1H,9H-diindolo[1,2,3-gh:3′,2′,1′-Im]pyrrolo[3,4-j][1,7]benzodiazonin-11-yl]-N-methylbenzamide]",not cytotoxic; also recorded: not cytoxic

# System: Ba/F3-FLT3-D835Y cells
# Experiment: not given
# Settings: in 24-72 hours
# Procedure: (§1) To search for FLT3-targeted compounds, the applicant screened the inhibitory effects of several compounds on two different kinds of assays. • Tyrosine protein kinase assays with purified GST-Flt-3 were carried in a final volume of 30 μL containing 200-1800 ng of enzyme protein. The activity was assayed in the presence or absence of inhibitors, by measuring the incorporation of ^33P from [γ^33P] ATP into appropriate substrates. […] Cell lines expressing two different forms of mutated, activated FLT3 are used: Ba/F3-FLT3-ITD cells expressing a FLT3 mutant with an “Internal Tandem Duplication” (ITD) within the juxtamembrane domain of the receptor. Ba/F3-FLT3-D835Y cells expressing an FLT3 receptor containing a mutation converting […] at position 835 to Tyrosine.
# (§2) A cell based assay is utilised to identify inhibitors of mutant FLT3 tyrosine kinase receptors.
# (§3) The cell lines used for the initial screening are sublines of Ba/F3 cells that are engineered to express mutant or over-express wild-type (non-mutated) FLT3 following infection with a retrovirus expressing appropriate FLT3 cDNAs. The parent cell line, Ba/F3 is dependent on interleukin-3 for proliferation, and when deprived of IL-3, the cells rapidly cease proliferation and die. The retrovirus expresses FLT3 from the retrovirual LTR and the neo gene from an IRES site.
row,Molecule,G1 cell cycle arrest and apoptosis
1,"CO[C@@H]1[C@H](N(C)C(=O)c2ccccc2)C[C@H]2O[C@]1(C)n1c3ccccc3c3c4c(c5c6ccccc6n2c5c31)C(=O)NC4 [MIDOSTAURIN, N-[(9S,10R,11R,13R)-2,3,10,11,12,13-hexahydro-10-methoxy-9-methyl-1-oxo-9,13-epoxy-1H,9H-diindolo[1,2,3-gh:3′,2′,1′-Im]pyrrolo[3,4-j][1,7]benzodiazonin-11-yl]-N-methylbenzamide]",induced both G1 cell cycle arrest and apoptosis

# System: Ba/F3-FLT3-ITD cells
# Experiment: not given
# Settings: in 24-72 hours
# Procedure: as §1, §2, §3
row,Molecule,G1 cell cycle arrest and apoptosis
1,"CO[C@@H]1[C@H](N(C)C(=O)c2ccccc2)C[C@H]2O[C@]1(C)n1c3ccccc3c3c4c(c5c6ccccc6n2c5c31)C(=O)NC4 [MIDOSTAURIN, N-[(9S,10R,11R,13R)-2,3,10,11,12,13-hexahydro-10-methoxy-9-methyl-1-oxo-9,13-epoxy-1H,9H-diindolo[1,2,3-gh:3′,2′,1′-Im]pyrrolo[3,4-j][1,7]benzodiazonin-11-yl]-N-methylbenzamide]",induced both G1 cell cycle arrest and apoptosis

# Target: T1, human Flt-3 (Homo sapiens, UniProt P36888)
# T1 construct: expresses the amino acid region amino acids 563-993 of the intra-cytoplasmic kinase domains of human Flt-3; made in house; host or cells: Sf9 insect cells (baculovirus, pFbacG01 donor vector)
# T1 sequence (P36888 563-993): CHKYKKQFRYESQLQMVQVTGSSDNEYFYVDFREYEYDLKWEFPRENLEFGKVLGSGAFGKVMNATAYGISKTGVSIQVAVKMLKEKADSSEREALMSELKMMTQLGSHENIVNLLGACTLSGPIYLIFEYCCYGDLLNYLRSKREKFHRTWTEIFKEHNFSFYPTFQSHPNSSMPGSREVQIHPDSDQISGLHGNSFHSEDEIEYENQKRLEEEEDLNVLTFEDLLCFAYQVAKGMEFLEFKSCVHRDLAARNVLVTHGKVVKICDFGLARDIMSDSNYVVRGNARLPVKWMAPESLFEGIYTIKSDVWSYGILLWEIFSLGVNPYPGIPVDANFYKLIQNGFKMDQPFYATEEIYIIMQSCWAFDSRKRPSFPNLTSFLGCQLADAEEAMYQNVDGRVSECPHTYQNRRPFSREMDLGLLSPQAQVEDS
# Experiment: Tyrosine protein kinase assay with purified GST-Flt-3 (33P incorporation)
# Type: biochemical
# Settings: at a 1.0 micromolar concentration
# Outline: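 GST-fused Flt-3 cytoplasmic domain, expressed in baculovirus-infected Sf9 cells and purified, phosphorylates substrate with [γ-33P]ATP. Reaction spotted onto PVDF membranes, washed with H3PO4 and ethanol, and incorporated 33P counted by scintillation.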
row,Molecule,Flt3 Inhibition (percent inhibition of Flt3 kinase activity) [%]
1,"CC[N+](C)(C)C1CC2OC(C)(C1OC)n1c3ccccc3c3c4c(c5c6ccccc6n2c5c31)C(=O)NC4.[I-] (stereo not drawn) [120685-28-1, N-Ethyl-[9S-(9a,10b,11b,13a)]-2,3,10,11,12,13-hexahydro-10-methoxy-N,N,9-trimethyl-1-oxo-9,13-epoxy-1H,9H-diindolo[1,2,3-gh:3′,2′,1′-lm]pyrrolo[3,4-j][1,7]benzodiazonin-11-aminium iodide]",100
2,"C=CCNC(=S)N(C)C1CC2OC(C)(C1OC)n1c3ccccc3c3c4c(c5c6ccccc6n2c5c31)C(=O)NC4 (stereo not drawn) [120685-39-4, (9a,10b,11b,13a)-N-(2,3,10,11,12,13-Hexahydro-10-methoxy-9-methyl-1-oxo-9,13-epoxy-1H,9H-diindolo[1,2,3-gh:3′,2′,1′-lm]pyrrolo[3,4-j][1,7]benzodiazonin-11-yl)-N-methyl-N′-2-propenyl-thiourea]",93
3,"[9a,10b,11b(S*),13a]-phenylmethyl 2-(acetylamino)-2-deoxy-3-O-[1-[[(2,3,10,11,12,13-hexahydro-10-methoxy-9-methyl-1-oxo-9,13-epoxy-1H,9H-diindolo[1,2,3-gh:3′,2′,1′-lm]pyrrolo[3,4-j][1,7]benzodiazonin-11-yl)methylamino]carbonyl]propyl]-a-D-Glucopyranoside [149622-45-7]",43
4,"[9S-(9a,10b,13a)]-2,3,9,10,12,13-Hexahydro-10-hydroxy-9-methyl-9,13-epoxy-1H,11H-diindolo[1,2,3-gh:3′,2′,1′-lm]pyrrolo[3,4-j][1,7]benzodiazonine-1,11-dione, 11-oxime [187457-73-4]",89
5,"COC1C(N(C)C(=O)C(C)OC2CCOCC2)CC2OC1(C)n1c3ccccc3c3c4c(c5c6ccccc6n2c5c31)C(=O)NC4 (stereo not drawn) [160251-50-3, [9S-[9a,10b,11b(S*),13a]]-N-(2,3,10,11,12,13-Hexahydro-10-methoxy-9-methyl-1-oxo-9,13-epoxy-1H,9H-diindolo[1,2,3-gh:3′,2′,1′-lm]pyrrolo[3,4-j][1,7]benzodiazonin-11-yl)-N-methyl-2-[(tetrahydro-2H-pyran-4-yl)oxy]-propanamide]",89
6,"COC1C(N(C)C(=O)CNC(=O)OCc2ccccc2)CC2OC1(C)n1c3ccccc3c3c4c(c5c6ccccc6n2c5c31)C(=O)NC4 (stereo not drawn) [125035-78-1, (9a,10b,11b,13a)-[2-[(2,3,10,11,12,13-Hexahydro-10-methoxy-9-methyl-1-oxo-9,13-epoxy-1H,9H-diindolo[1,2,3-gh:3′,2′,1′-lm]pyrrolo[3,4-j][1,7]benzodiazonin-11-yl)methylamino]-2-oxoethyl]-carbamic acid, phenylmethyl ester]",52
7,"COC1C(N(C)CC(=O)O)CC2OC1(C)n1c3ccccc3c3c4c(c5c6ccccc6n2c5c31)C(=O)NC4 (stereo not drawn) [120685-22-5, [9S-(9a,10b,11b,13a)]-N-(2,3,10,11,12,13-Hexahydro-10-methoxy-9-methyl-1-oxo-9,13-epoxy-1H,9H-diindolo[1,2,3-gh:3′,2′,1′-lm]pyrrolo[3,4-j][1,7]benzodiazonin-11-yl)-N-methyl-glycine]",98
8,"[9S-(9a,10b,11b,13a)]-(2,3,10,11,12,13-Hexahydro-10-methoxy-9-methyl-1-oxo-9,13-epoxy-1H,9H-diindolo[1,2,3-gh:3′,2′,1′-lm]pyrrolo[3,4-j][1,7]benzodiazonin-11-yl)methyl-carbamic acid, 2-methylpropyl ester [154590-03-1]",49
9,"COC1C(N(C)C(=O)c2cnccn2)CC2OC1(C)n1c3ccccc3c3c4c(c5c6ccccc6n2c5c31)C(=O)NC4 (stereo not drawn) [155848-17-2, [9S-(9a,10b,11b,13a)]-N-(2,3,10,11,12,13-Hexahydro-10-methoxy-9-methyl-1-oxo-9,13-epoxy-1H,9H-diindolo[1,2,3-gh:3′,2′,1′-lm]pyrrolo[3,4-g][1,7]benzodiazonin-11-yl)-N-methyl-pyrazinecarboxamide]",85

# The remaining lines, values ahead:
row,Flt3 Inhibition (percent inhibition of Flt3 kinase activity) [%],Molecule
1,99,"(9a,10b,11b,13a)-11-[[N-Acetyl-6-amino-6-deoxy-1-O-(phenylmethyl)-a-muramoyl]methylamino]-2,3,10,11,12,13-hexahydro-10-methoxy-9-methyl-9,13-epoxy-1H,9H-diindolo[1,2,3-gh:3′,2′,1′-lm]pyrrolo[3,4-j][1,7]benzodiazonin-1-one, monomethanesulfonate [150622-14-3]"
2,91,"COC1C(N(C)C(=O)c2ccc(O)cc2)CC2OC1(C)n1c3ccccc3c3c4c(c5c6ccccc6n2c5c31)C(=O)NC4 [165815-73-6, N-[(9S,10R,11R,13R)-2,3,10,11,12,13-Hexahydro-10-methoxy-9-methyl-1-oxo-9,13-epoxy-1H,9H-diindolo[1,2,3-gh:3′,2′,1′-lm]pyrrolo[3,4-j][1,7]benzodiazonin-11-yl]-4-hydroxy-N-methyl-benzamide]"
3,74,"(9a,10b,11b,13a)-11-[(N-Acetyl-4,6-di-O-acetyl-a-muramoyl)methylamino]-2,3,10,11,12,13-hexahydro-10-methoxy-9-methyl-9,13-epoxy-1H,9H-diindolo[1,2,3-gh:3′,2′,1′-lm]pyrrolo[3,4-j][1,7]benzodiazonin-1-one [149622-65-1]"
4,100,"CNC1CC2OC(C)(C1O)n1c3ccccc3c3c4c(c5c6ccccc6n2c5c31)C(=O)NC4 [239785-03-6, (9R,10S,11S,13S)-2,3,10,11,12,13-Hexahydro-10-hydroxy-9-methyl-11-(methylamino)-,9,13-epoxy-1H,9H-diindolo[1,2,3-gh:3′,2′,1′-lm]pyrrolo[3,4-j][1,7]benzodiazonin-1-one]"
5,91,"(9a,10b,11b,13a)-11-[(N-Acetyl-a-muramoyl)methylamino]-2,3,10,11,12,13-hexahydro-10-methoxy-9-methyl-9,13-epoxy-1H,9H-diindolo[1,2,3-gh:3′,2′,1′-lm]pyrrolo[3,4-j][1,7]benzodiazonin-1-one [149622-53-7]"
6,96,"(9a,10b,11b,13a)-11-[(N-Acetyl-6-amino-6-deoxy-b-muramoyl)methylamino]-2,3,10,11,12,13-hexahydro-10-methoxy-9-methyl-9,13-epoxy-1H,9H-diindolo[1,2,3-gh:3′,2′,1′-lm]pyrrolo[3,4-j][1,7]benzodiazonin-1-one [149713-77-9]"
